Measured values as given in the supplement of paper PMC3937590.

Tests used:
Experiment in all cases: -log10 GI50 (growth inhibition 50%) (-log10(M)); higher = more potent growth inhibition
[1] = tested on: MDAMB453
Summary of the method: (§1)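 Breast cancer cell lines were exposed to each compound for 72 hours at nine doses in 1:5 serial dilution, in triplicate, with a luminescence read-out against a time-zero plate. A Gompertz curve was fitted to the dose-response data by nonlinear least squares. The value is minus log10 of GI50, the molar concentration giving the set level of growth inhibition. Values equal to the top dose carry a < qualifier.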

[2] = tested on: BT20
Summary of the method: as §1

[3] = tested on: ZR75B
Summary of the method: as §1

[4] = tested on: BT549
Summary of the method: as §1

[5] = tested on: T47D_KBluc
Summary of the method: as §1

[6] = tested on: HCC1569
Summary of the method: as §1

[7] = tested on: HCC202
Summary of the method: as §1

[8] = tested on: HCC1954
Summary of the method: as §1

[9] = tested on: 184A1
Summary of the method: as §1

[10] = tested on: UACC812
Summary of the method: as §1

[11] = tested on: MCF12A
Summary of the method: as §1

[12] = tested on: MCF7
Summary of the method: as §1

[13] = tested on: 184B5
Summary of the method: as §1

[14] = tested on: SUM1315MO2
Summary of the method: as §1

[15] = tested on: HCC1395
Summary of the method: as §1

[16] = tested on: MDAMB361
Summary of the method: as §1

[17] = tested on: SUM159PT
Summary of the method: as §1

[18] = tested on: LY2
Summary of the method: as §1

[19] = tested on: SUM225CWN
Summary of the method: as §1

[20] = tested on: AU565
Summary of the method: as §1

[21] = tested on: HCC70
Summary of the method: as §1

[22] = tested on: MCF10A
Summary of the method: as §1

[23] = tested on: MDAMB231
Summary of the method: as §1

[24] = tested on: MDAMB157
Summary of the method: as §1

[25] = tested on: SKBR3
Summary of the method: as §1

[26] = tested on: CAMA1
Summary of the method: as §1

[27] = tested on: HCC1937
Summary of the method: as §1

[28] = tested on: HCC1428
Summary of the method: as §1

[29] = tested on: MX1
Summary of the method: as §1

[30] = tested on: T47D
Summary of the method: as §1

[31] = tested on: BT474
Summary of the method: as §1

[32] = tested on: ZR751
Summary of the method: as §1

[33] = tested on: HCC1419
Summary of the method: as §1

[34] = tested on: SUM229PE
Summary of the method: as §1

[35] = tested on: 600MPE
Summary of the method: as §1

[36] = tested on: HS578T
Summary of the method: as §1

[37] = tested on: MCF10F
Summary of the method: as §1

[38] = tested on: HCC38
Summary of the method: as §1

[39] = tested on: HCC1187
Summary of the method: as §1

[40] = tested on: HCC1806
Summary of the method: as §1

[41] = tested on: HCC2185
Summary of the method: as §1

[42] = tested on: MDAMB175VII
Summary of the method: as §1

[43] = tested on: BT483
Summary of the method: as §1

[44] = tested on: MDAMB134VI
Summary of the method: as §1

[45] = tested on: MDAMB415
Summary of the method: as §1

[46] = tested on: HCC3153
Summary of the method: as §1

[47] = tested on: SUM149PT
Summary of the method: as §1

[48] = tested on: HCC1143
Summary of the method: as §1

[49] = tested on: SUM185PE
Summary of the method: as §1

[50] = tested on: SUM52PE
Summary of the method: as §1

[51] = tested on: MDAMB468
Summary of the method: as §1

[52] = tested on: UACC893
Summary of the method: as §1

[53] = tested on: HBL100
Summary of the method: as §1

[54] = tested on: S1
Summary of the method: as §1

[55] = tested on: MDAMB436
Summary of the method: as §1

CCNCCCCNCCCCNCCCCNCCCCNC/C=C/CNCCCCNCCCCNCCCCNCCCCNCC
-log10 GI50 [1]: 6.28
-log10 GI50 [2]: 6.66
-log10 GI50 [3]: 6.38
-log10 GI50 [4]: 6.53
-log10 GI50 [5]: 6.46
-log10 GI50 [6]: 4.74
-log10 GI50 [7]: 6.28
-log10 GI50 [8]: 6.57
-log10 GI50 [9]: 6.32
-log10 GI50 [10]: 6.78
-log10 GI50 [11]: 6.2
-log10 GI50 [12]: 6.33
-log10 GI50 [13]: 5.62
-log10 GI50 [14]: 5.69
-log10 GI50 [15]: 6.3
-log10 GI50 [16]: 5.78
-log10 GI50 [17]: 6.6
-log10 GI50 [18]: 5.18
-log10 GI50 [19]: 5.49
-log10 GI50 [20]: 6.31
-log10 GI50 [21]: 6.55
-log10 GI50 [22]: 5.9
-log10 GI50 [23]: 4.67
-log10 GI50 [24]: 6.97
-log10 GI50 [25]: 5.31
-log10 GI50 [26]: 6.43
-log10 GI50 [27]: 4.95
-log10 GI50 [28]: 6.33
-log10 GI50 [29]: 6.57
-log10 GI50 [30]: 6.97
-log10 GI50 [31]: 6.02
-log10 GI50 [32]: 6.82
-log10 GI50 [33]: 6.51
-log10 GI50 [34]: 6.24
-log10 GI50 [35]: 6.49
-log10 GI50 [36]: 4.93
-log10 GI50 [37]: 5.96
-log10 GI50 [38]: 6.81
-log10 GI50 [39]: 6.15
-log10 GI50 [40]: 6.71
-log10 GI50 [41]: 6.6
-log10 GI50 [42]: 6.79
-log10 GI50 [43]: 6.25
-log10 GI50 [44]: 6.38
-log10 GI50 [45]: 6.63
-log10 GI50 [46]: 6.72
-log10 GI50 [47]: 6.53
-log10 GI50 [48]: 6.88
-log10 GI50 [49]: 6.68
-log10 GI50 [50]: 6.81

COc1cccc2c1C(=O)c1c(O)c3c(c(O)c1C2=O)C[C@@](O)(C(=O)CO)C[C@@H]3O[C@H]1C[C@H](N)[C@@H](O)[C@H](C)O1 [Epirubicin]
-log10 GI50 [1]: 6.66
-log10 GI50 [3]: 6.94
-log10 GI50 [4]: 6.7
-log10 GI50 [6]: 6.06
-log10 GI50 [7]: 6.26
-log10 GI50 [8]: 6.7
-log10 GI50 [51]: 6.15
-log10 GI50 [9]: 6.68
-log10 GI50 [11]: 7.26
-log10 GI50 [12]: 6.45
-log10 GI50 [13]: 8.25
-log10 GI50 [14]: 7.44
-log10 GI50 [15]: 6.14
-log10 GI50 [16]: 6.65
-log10 GI50 [17]: 6.86
-log10 GI50 [18]: 6.86
-log10 GI50 [20]: 6.84
-log10 GI50 [52]: 6.11
-log10 GI50 [21]: 6.35
-log10 GI50 [22]: 6.71
-log10 GI50 [23]: 6.57
-log10 GI50 [24]: 6.31
-log10 GI50 [53]: 6.88
-log10 GI50 [54]: 6.42
-log10 GI50 [27]: 6.69
-log10 GI50 [28]: 5.88
-log10 GI50 [31]: 5.17
-log10 GI50 [32]: 6.6
-log10 GI50 [33]: 6.15
-log10 GI50 [34]: 6.62
-log10 GI50 [36]: 6.44
-log10 GI50 [37]: 6.32
-log10 GI50 [38]: 7.07
-log10 GI50 [39]: 6.33
-log10 GI50 [55]: 5.92
-log10 GI50 [40]: 6.78
-log10 GI50 [41]: 6.91
-log10 GI50 [42]: 7.05
-log10 GI50 [43]: 6.78
-log10 GI50 [44]: 5.98
-log10 GI50 [45]: 6.58
-log10 GI50 [46]: 6.19
-log10 GI50 [47]: 6.66
-log10 GI50 [48]: 6.58
-log10 GI50 [49]: 6.39
-log10 GI50 [50]: 7.42

CS(=O)(=O)CCNCc1ccc(-c2ccc3ncnc(Nc4ccc(OCc5cccc(F)c5)c(Cl)c4)c3c2)o1 [Lapatinib]
-log10 GI50 [1]: 5.29
-log10 GI50 [2]: < 4.78
-log10 GI50 [3]: < 4.78
-log10 GI50 [4]: < 4.78
-log10 GI50 [5]: < 4.78
-log10 GI50 [6]: 5.47
-log10 GI50 [7]: 6.12
-log10 GI50 [8]: 5.58
-log10 GI50 [9]: 5.86
-log10 GI50 [10]: 6.34
-log10 GI50 [12]: < 4.78
-log10 GI50 [13]: 5.24
-log10 GI50 [14]: 4.82
-log10 GI50 [15]: < 4.78
-log10 GI50 [16]: 5.33
-log10 GI50 [17]: < 4.78
-log10 GI50 [19]: 6.16
-log10 GI50 [20]: 6.4
-log10 GI50 [21]: 5.4
-log10 GI50 [22]: < 4.78
-log10 GI50 [23]: < 4.78
-log10 GI50 [24]: < 4.78
-log10 GI50 [25]: 6.39
-log10 GI50 [26]: < 4.78
-log10 GI50 [27]: < 4.78
-log10 GI50 [28]: < 4.78
-log10 GI50 [29]: 5.27
-log10 GI50 [30]: 4.78
-log10 GI50 [31]: 6.4
-log10 GI50 [32]: < 4.78
-log10 GI50 [33]: 6.61
-log10 GI50 [34]: 4.86
-log10 GI50 [35]: < 4.78
-log10 GI50 [36]: < 4.78
-log10 GI50 [37]: 4.94
-log10 GI50 [38]: < 4.78
-log10 GI50 [39]: < 4.78
-log10 GI50 [40]: < 4.78
-log10 GI50 [41]: < 4.78
-log10 GI50 [42]: 6.04
-log10 GI50 [43]: < 4.78
-log10 GI50 [44]: < 4.78
-log10 GI50 [45]: < 4.78
-log10 GI50 [46]: < 4.78
-log10 GI50 [48]: < 4.78
-log10 GI50 [49]: < 4.78
-log10 GI50 [50]: < 4.78
